Source: ChEMBL document CHEMBL1140314, “Adamantyl cannabinoids: a novel class of cannabinergic ligands” (J Med Chem, 2005)

Key:
Cannabinoid receptor 1 = Cannabinoid receptor 1 (Rattus norvegicus, UniProt P20272); experiment: Inhibition of [3H]CP-55940 binding to cannabinoid receptor 1 of rat brain
Cannabinoid receptor 2 = Cannabinoid receptor 2 (Mus musculus, UniProt P47936); experiment: Inhibition of [3H]CP-55940 binding to cannabinoid receptor 2 of mouse spleen membranes; format: tissue-based
Rattus norvegicus [1] = experiment: In vivo cannabinergic activity in rat after 90 min of dose administration (0.03-1.8 mg/kg) using drug discrimination assay; format: functional
Rattus norvegicus [2] = experiment: In vivo cannabinergic activity in rat after 30 min of dose administration (0.03-1.8 mg/kg) using drug discrimination assay; format: functional; conditions: 0.5 h

Sequence of Cannabinoid receptor 2 (P47936 whole entry): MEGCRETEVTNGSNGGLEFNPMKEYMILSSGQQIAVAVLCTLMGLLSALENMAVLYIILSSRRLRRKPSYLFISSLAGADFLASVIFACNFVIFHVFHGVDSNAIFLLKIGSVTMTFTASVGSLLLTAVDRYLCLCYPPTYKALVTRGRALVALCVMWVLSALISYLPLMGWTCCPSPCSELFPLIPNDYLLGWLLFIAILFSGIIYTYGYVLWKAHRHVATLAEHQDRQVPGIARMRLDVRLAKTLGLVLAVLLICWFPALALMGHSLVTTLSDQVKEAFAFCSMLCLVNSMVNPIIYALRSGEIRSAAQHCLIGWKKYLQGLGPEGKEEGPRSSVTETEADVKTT
Sequence of Cannabinoid receptor 1 (P20272 whole entry): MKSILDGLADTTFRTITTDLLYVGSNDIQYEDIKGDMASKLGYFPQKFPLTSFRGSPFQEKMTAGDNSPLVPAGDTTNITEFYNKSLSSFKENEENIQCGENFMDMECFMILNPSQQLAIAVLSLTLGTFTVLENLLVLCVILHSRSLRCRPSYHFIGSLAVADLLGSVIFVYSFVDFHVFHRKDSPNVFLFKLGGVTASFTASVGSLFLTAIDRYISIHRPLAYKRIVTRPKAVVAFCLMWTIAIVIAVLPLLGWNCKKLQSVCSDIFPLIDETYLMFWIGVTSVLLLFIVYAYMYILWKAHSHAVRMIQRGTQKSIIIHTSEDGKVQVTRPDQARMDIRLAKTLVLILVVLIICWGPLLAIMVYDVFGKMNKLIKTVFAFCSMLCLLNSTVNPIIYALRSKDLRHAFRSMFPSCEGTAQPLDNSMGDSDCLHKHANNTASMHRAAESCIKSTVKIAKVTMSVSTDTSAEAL

Row | Structure (SMILES) | Ki (Cannabinoid receptor 1) | Ki (Cannabinoid receptor 2) | ED50 (Rattus norvegicus [1]) | ED50 (Rattus norvegicus [1]; Rattus norvegicus, 1.5 h, read-out: ED50) | ED50 (Rattus norvegicus [2])
1 | CC1=CC[C@@H]2[C@@H](C1)c1c(O)cc(C=C3C4CC5CC(C4)CC3C5)cc1OC2(C)C | 48.6 nM | 8.9 nM |  |  | 
2 | CC1=CC[C@@H]2[C@@H](C1)c1c(O)cc(C3C4CC5CC(C4)CC3C5)cc1OC2(C)C (stereo partly drawn) | 34.9 nM | 14 nM |  |  | 
3 | CC1=CC[C@@H]2[C@@H](C1)c1c(O)cc(CC3C4CC5CC(C4)CC3C5)cc1OC2(C)C (stereo partly drawn) | 79.7 nM | 76 nM |  |  | 
4 | CC1=CC[C@@H]2[C@@H](C1)c1c(O)cc(C34CC5CC(CC(C5)C3)C4)cc1OC2(C)C | 6.8 nM | 52 nM | 0.41 mg/kg | 0.44 mg/kg | 0.68 mg/kg
5 | CC1=CC[C@@H]2[C@@H](C1)c1c(O)cc(CC34CC5CC(CC(C5)C3)C4)cc1OC2(C)C | 29.3 nM | 26.9 nM |  |  | 
